Reference: patent US20260344673A1, “A SOLID FORM FOR PREPARATION OF AN AQUEOUS DISPERSION, AQUEOUS DISPERSION, STABLE CONCENTRATE, COMBINED AQUEOUS DISPERSION, AND USES THEREOF” (priority 2022, published 2026)

Experiments:
Fusarium oxysporum = assay: Kirby-Bauer disk diffusion test, Fusarium oxysporum
Protocol: (§1) The microbiological tests were carried out by applying Kirby-Bauer Disk Diffusion Susceptibility Test Protocol for antimicrobial activity. It is based on the formation of a concentration gradient in the growth medium during the diffusion of the active substance from the antibiogram disc (Kirby-Bauer method).
(§2) The performance of the embodiments of the present inventions and their mixtures enriched with millbase (MFA) was analysed against the appropriate reference substance, i.e., a commercial product containing the analogue active substance with the same concentration. The prepared solutions were applied on the paper antibiograms. Then the soaked antibiograms were placed on the Petri Dishes (dish diameter 90 mm) with the growth medium for fungal pathogens V8. Composition of V8: agar, calcium carbonate and multi-vegetable juice. 3 fragments of mycelium of the tested pathogen (5×5 mm) were transplanted onto the prepared medium. As a result, the zones where the fungal growth was inhibited have been measured and compared respectively with the control sample and the analogue active substance sample.
(§3) Assessment was carried out by determining the infested area of the Petri dish in %. These percentages have been converted into efficacy (W) according to Abbot's formula as follows: W=(1−α/β)×100 • where: • α—corresponds to the mycelium/bacterial growth of each tested sample [%], • β—corresponds to the mycelium/bacterial growth in control sample [%].
(§4) In order to estimate if the combined action effect with the commercial fungicide, the W parameter of the mixture was compared with W parameter for particular commercial fungicide solo. Where W=0 the efficacy of the control sample (whole Petri dish covered with mycelium), and W=100 is when no mycelium growth observed.

Verticillium longisporum = assay: Kirby-Bauer disk diffusion test, Verticillium longisporum
Protocol: as §2, §3, §4

Septoria nodorum (1291) = assay: Kirby-Bauer disk diffusion test, Septoria nodorum (1291)
Protocol: as §2, §3, §4

Monilinia fructigena = assay: Kirby-Bauer disk diffusion test, Monilinia fructigena; conditions: for % mycelium growth relative to the control / mycelium growth: V8 medium; for mycelium growth: control 5.4 cm; for EFFICACY W (Abbot): control W=0, no growth W=100
Protocol: as §2, §3, §4

Rhizoctonia solani = assay: Kirby-Bauer disk diffusion test, Rhizoctonia solani; conditions: for % mycelium growth relative to the control / mycelium growth: V8 medium; for mycelium growth: control 8.6 cm; for EFFICACY W (Abbot): control W=0, no growth W=100
Protocol: as §2, §3, §4

Septoria tritici = assay: Kirby-Bauer disk diffusion test, Septoria tritici
Protocol: as §2, §3, §4

Sclerotinia sclerotiorum = assay: Kirby-Bauer disk diffusion test, Sclerotinia sclerotiorum; conditions: for % mycelium growth relative to the control / mycelium growth: V8 medium; for mycelium growth: control 8.6 cm; for EFFICACY W (Abbot): control W=0, no growth W=100
Protocol: as §2, §3, §4

Venturia inaegualis = assay: Kirby-Bauer disk diffusion test, Venturia inaequalis; conditions: Venturia inaegualis
Protocol: as §1, §2, §3, §4

[1] = test system: Alternaria infectoria/alternata; assay: Kirby-Bauer disk diffusion test, Alternaria infectoria/alternata; conditions: for % mycelium growth relative to the control / mycelium growth: V8 medium; for mycelium growth: control 8.6 cm; for EFFICACY W (Abbot): control W=0, no growth W=100
Protocol: as §2, §3, §4

Fusarium equiseti = assay: Kirby-Bauer disk diffusion test, Fusarium equiseti; conditions: for % mycelium growth relative to the control / mycelium growth: V8 medium; for mycelium growth: control 8.6 cm; for EFFICACY W (Abbot): control W=0, no growth W=100
Protocol: as §2, §3, §4

Phytophthora megasperma = assay: Kirby-Bauer disk diffusion test, Phytophthora megasperma
Protocol: as §1, §2, §3, §4

Phytophthora cactorum = assay: Kirby-Bauer disk diffusion test, Phytophthora cactorum; design: % mycelium growth relative to the control: concentration or dose not given beside the values; conditions: for % mycelium growth relative to the control / mycelium growth: V8 medium; for mycelium growth: control 5.4 cm; for EFFICACY W (Abbot): control W=0, no growth W=100
Protocol: as §2, §3, §4

Trichoderma harzianum = assay: Kirby-Bauer disk diffusion test, Trichoderma harzianum
Protocol: as §2, §3, §4

[2] = test system: Colletotrichum gloeosporioides; assay: Kirby-Bauer disk diffusion test, Colletotrichum gloeosporioides
Protocol: as §1, §2, §3, §4

Botrytis cinerea = assay: Kirby-Bauer disk diffusion test, Botrytis cinerea
Protocol: as §2, §3, §4

O=C(NCCc1ncc(C(F)(F)F)cc1Cl)c1ccccc1C(F)(F)F [Fluopyram (500)]
% mycelium growth relative to the control (Fusarium oxysporum; Fusarium oxysporum, V8 medium): 100% | mycelium growth (Fusarium oxysporum; Fusarium oxysporum, V8 medium, control 8.6 cm): 8.6 cm | EFFICACY W (Abbot) (Fusarium oxysporum; Fusarium oxysporum, control W=0, no growth W=100): 0 | % mycelium growth relative to the control (Verticillium longisporum; V8 medium): 95% | mycelium growth (Verticillium longisporum; V8 medium, control 3.9 cm): 3.7 cm | EFFICACY W (Abbot) (Verticillium longisporum; control W=0, no growth W=100): 5 | % mycelium growth relative to the control (Septoria nodorum (1291); V8 medium): 61% | mycelium growth (Septoria nodorum (1291); V8 medium, control 5.4 cm): 3.3 cm | EFFICACY W (Abbot) (Septoria nodorum (1291); control W=0, no growth W=100): 39 | % mycelium growth relative to the control (Monilinia fructigena): 30% | mycelium growth (Monilinia fructigena): 1.6 cm | EFFICACY W (Abbot) (Monilinia fructigena): 70 | % mycelium growth relative to the control (Rhizoctonia solani): 100% | mycelium growth (Rhizoctonia solani): 8.6 cm | EFFICACY W (Abbot) (Rhizoctonia solani): 0 | % mycelium growth relative to the control (Septoria tritici; V8 medium): 0% | mycelium growth (Septoria tritici; V8 medium, control 1.9 cm): 0 cm | EFFICACY W (Abbot) (Septoria tritici; control W=0, no growth W=100): 100 | % mycelium growth relative to the control (Sclerotinia sclerotiorum): 100% | mycelium growth (Sclerotinia sclerotiorum): 8.6 cm | EFFICACY W (Abbot) (Sclerotinia sclerotiorum): 0 | % mycelium growth relative to the control (Venturia inaegualis; V8 medium): 0% | mycelium growth (Venturia inaegualis; V8 medium, control 2.9 cm): 0 cm | EFFICACY W (Abbot) (Venturia inaegualis; control W=0, no growth W=100): 100 | % mycelium growth relative to the control [1]: 55% | mycelium growth [1]: 4.7 cm | EFFICACY W (Abbot) [1]: 45 | % mycelium growth relative to the control (Fusarium graminearum; V8 medium): 66% | mycelium growth (Fusarium graminearum; V8 medium, control 8.6 cm): 5.7 cm | EFFICACY W (Abbot) (Fusarium graminearum; control W=0, no growth W=100): 34 | % mycelium growth relative to the control (Fusarium equiseti): 79% | mycelium growth (Fusarium equiseti): 6.8 cm | EFFICACY W (Abbot) (Fusarium equiseti): 21 | % mycelium growth relative to the control (Phytophthora megasperma; Phytophthora megasperma, V8 medium): 65% | mycelium growth (Phytophthora megasperma; Phytophthora megasperma, V8 medium, control 5.4 cm (8.6 cm in Table 25)): 3.5 cm | EFFICACY W (Abbot) (Phytophthora megasperma; Phytophthora megasperma, control W=0, no growth W=100): 35 | % mycelium growth relative to the control (Phytophthora cactorum): 72% | mycelium growth (Phytophthora cactorum): 3.9 cm | EFFICACY W (Abbot) (Phytophthora cactorum): 28

COc1cc(C)c(C(=O)c2c(OC)ccc(Br)c2C)c(OC)c1OC [Metrafenone (150)]
% mycelium growth relative to the control (Trichoderma harzianum; V8 medium): 80% | mycelium growth (Trichoderma harzianum; V8 medium, control 8.6 cm): 6.9 cm | EFFICACY W (Abbot) (Trichoderma harzianum; control W=0, no growth W=100): 20

c1ccc2[nH]c(-c3cscn3)nc2c1 [Thiabendazole, thiabendazole, reference compound]
activity at 500000 µg/mL (Fusarium oxysporum; Fusarium oxysporum, thiabendazole 500 g/L, read-out: % mycelium growth relative to the control): 84% | inhibition of growth at 500000 µg/mL (Fusarium oxysporum; Fusarium oxysporum, thiabendazole 500 g/L, read-out: EFFICACY W (Abbot)): 16% | mycelium growth (Fusarium oxysporum; thiabendazole 500 g/L): 7.2 cm | activity at 500000 µg/mL (Phytophthora megasperma; Phytophthora megasperma, thiabendazole 500 g/L, read-out: % mycelium growth relative to the control): 48% | inhibition of growth at 500000 µg/mL (Phytophthora megasperma; Phytophthora megasperma, thiabendazole 500 g/L, read-out: EFFICACY W (Abbot)): 52% | mycelium growth (Phytophthora megasperma; thiabendazole 500 g/L): 2.6 cm | activity at 500000 µg/mL ([2]; Colletotrichum gloeosporioides, thiabendazole 500 g/L, read-out: % mycelium growth relative to the control): 0% | inhibition of growth at 500000 µg/mL ([2]; Colletotrichum gloeosporioides, thiabendazole 500 g/L, read-out: EFFICACY W (Abbot)): 100% | mycelium growth ([2]; thiabendazole 500 g/L): 0 cm

O=[N+]([O-])c1cc(C(F)(F)F)c(Cl)c([N+](=O)[O-])c1Nc1ncc(C(F)(F)F)cc1Cl [fluazinam (200)]
% mycelium growth relative to the control (Monilinia fructigena): 0% | mycelium growth (Monilinia fructigena): 0 cm | EFFICACY W (Abbot) (Monilinia fructigena): 100 | % mycelium growth relative to the control (Rhizoctonia solani): 100% | mycelium growth (Rhizoctonia solani): 8.6 cm | EFFICACY W (Abbot) (Rhizoctonia solani): 0 | % mycelium growth relative to the control (Sclerotinia sclerotiorum): 100% | mycelium growth (Sclerotinia sclerotiorum): 8.6 cm | EFFICACY W (Abbot) (Sclerotinia sclerotiorum): 0 | % mycelium growth relative to the control [1]: 40% | mycelium growth [1]: 3.4 cm | EFFICACY W (Abbot) [1]: 60 | % mycelium growth relative to the control (Botrytis cinerea; V8 medium): 100% | mycelium growth (Botrytis cinerea; V8 medium, control 8.6 cm): 8.6 cm | EFFICACY W (Abbot) (Botrytis cinerea; control W=0, no growth W=100): 0 | % mycelium growth relative to the control (Fusarium equiseti): 80% | mycelium growth (Fusarium equiseti): 6.9 cm | EFFICACY W (Abbot) (Fusarium equiseti): 20 | % mycelium growth relative to the control (Phytophthora cactorum): 33% | mycelium growth (Phytophthora cactorum): 1.8 cm | EFFICACY W (Abbot) (Phytophthora cactorum): 67 | % mycelium growth relative to the control ([2]; Colletotrichum gloeosporioides, V8 medium): 0% | mycelium growth ([2]; Colletotrichum gloeosporioides, V8 medium, control 5.4 cm): 0 cm | EFFICACY W (Abbot) ([2]; Colletotrichum gloeosporioides, control W=0, no growth W=100): 100
